The results in this text go back to patent publication US7291347B2, “Succinate salt of O-desmethyl-venlafaxine” (Wyeth, priority 2001, dated 2007).

Series [1] is described as follows: Aqueous solubility (UV spectrophotometry). The series is classed as physicochemical. As to conditions: water, thermodynamic from solid, general statement. Here is the method: The aqueous solubility (reported above) of Form I of ODV succinate was determined according to the following procedure. Materials • Spectrophotometer—Capable of isolating a bandwidth of 2 nm or less at the wavelength of maximum absorbance, and of measuring absorbances in the 0.0 to 1.0 range with a precision of 0.01. A Cary Model 219 spectrophotometer or equivalent is suitable. • Cells—Silica, 1 cm. • Filters—0.45 micron Nylon filters which are chemical resistant or equivalent • Bottles—Glass screw top bottles having a 15 mL or greater capacity. • Shaker—A lateral shaker, wrist shaker, or a vibrator which will not generate heat is suitable. A. For Non UV Absorbing Solvents • 1. To a bottle weigh an amount of sample equivalent to approximately 1½ times the solubility. • 2. […] Agitate the bottles at ambient room temperature for at least 16 hours. • 4. Obtain a clear filtrate layer by either centrifugation of filtration being careful to avoid evaporation. • 5. Quantitatively transfer the solution to a volumetric flask and dilute to volume with water. • 6. Blank the instrument for water. • 7. Make quantitative dilutions to arrive at a suitable concentration for measurement. […] Quantitatively transfer to a volumetric flask with the same solvent used in preparing the standard solution. • 6. Make dilutions as necessary to obtain a concentration suitable for quantitative measurement. […]

The nature of series [2]: Bioavailability of O-desmethyl-venlafaxine in beagle dogs. The series is classed as in vivo. The settings on record: male, dog, plasma, free ODV levels, mean (% CV); for bioavailability: read-out: Absolute Bioavailability (%). Here is the method: Prior to administration, the oral solution (25 mg/mL) was diluted to a concentration of 7.5 mg/mL with water. […] Six male beagle dogs with body weights ranging between 10.2 and 16.0 kg were used in this study. The dogs were housed and given free access to water and food. The six dogs were dosed in a 4 period study. In Period 1, the dogs received 1 mL of the intravenous solution. In Period 2, the dogs received 10 mL of the oral solution. In Period 3, the dogs received the tablet. In Period 4, the dogs received the capsule. There was a one week wash out period between the first two treatment periods and a one month wash out period between treatment periods 2 and 3. Between periods 3 and 4, there was a one week wash out period. For periods 1 and 2, all dogs were fasted overnight with free access to water and fed after the four-hour bleeding. […] Plasma was separated in a refrigerated centrifuge and stored at -70° C. Plasma samples were then assayed. Plasma O-desmethyl-venlafaxine concentrations were determined by the HPLC method using mass spectrometric detection described in Hicks, […]., Russel, […] high-performance liquid chromatographic method for the simultaneous determination of venlafaxine and O-desmethylvenlafaxine in biological fluids”, Ther. Drug Monit. 16:100-107 (1994), which is hereby incorporated by reference. […] O-desmethyl-venlafaxine-glucuronide levels were determined by subtracting the O-desmethyl-venlafaxine (separate extraction procedure without the use of β-glucuronidase and analyzed by HPLC-MS) concentrations from the total O-desmethyl-venlafaxine concentrations. Noncompartmental pharmacokinetic parameters were calculated from the individual dog plasma O-desmethyl-venlafaxine and O-desmethyl-venlafaxine-glucuronide concentration-time profiles. Area under the plasma concentration-time curves (AUC0-μ) values were calculated by the addition of AUCLast (AUCLast=the linear trapezoid rule from time zero to the last measurable plasma concentration, […]) and […]/lambda. The values for lambda were determined from the long-linear portion of the terminal slope of the plasma O-desmethyl-venlafaxine and O-desmethyl-venlafaxine-glucuronide concentration-time profile after the intravenous dose. […] The peak plasma concentration (Cmax) and the time to reach Cmax (tmax) were noted directly from the plasma concentration-time profiles. Absolute bioavailability was determined by comparing the dose normalized AUC0-μvalues following the intravenous administration. All levels reported as below limit of quantitation (BLQ) were assigned a value of zero for calculation purposes.

[3] abbreviates: po, 75 mg, Oral Solution (75 mg).

The structures appear in SMILES notation. Read-outs that look alike come from different tables or passages of the source.

What is called solubility is the dissolved amount per volume that the medium holds. The low end stands for little dissolved substance, the high end for much dissolved substance. By AUC is commonly meant the area under the concentration-time curve, a measure of exposure. The low end stands for low exposure, the high end for high exposure. One may read the Cmax as the peak of the concentration-time curve. The Tmax is the time from dosing to the highest level. For orientation: bioavailability means dose-corrected exposure relative to a reference, in per cent.

As to `CN(C)CC(c1ccc(O)cc1)C1(O)CCCCC1.O=C(O)CCC(=O)O` (centres unmarked) [ODV succinate, O-desmethyl-venlafaxine succinate], the solubility in series [1] is more than 30 mg/mL. The AUC in series [2] (iv, 25 mg, Intravenous Solution (25 mg)) is 746 ng·h/mL; in series [2] (po, 75 mg, Capsule (75 mg)), 904 ng·h/mL; in series [2] (setting [3]) it was 835 ng·h/mL; in series [2] (po, 75 mg, Tablet (75 mg)), 677 ng·h/mL. The highest concentration (Cmax) was determined as 465 ng/mL in series [2] (po, 75 mg, Capsule (75 mg)); 450 ng/mL in series [2] (setting [3]); 115 ng/mL in series [2] (po, 75 mg, Tablet (75 mg)). Moreover, the Tmax in series [2] (po, 75 mg, Capsule (75 mg)) was 33 min; in series [2] (setting [3]), 30 min; in series [2] (po, 75 mg, Tablet (75 mg)), 175 min. Besides, the bioavailability came out at 40% in series [2] (po, 75 mg, Capsule (75 mg)); 37% in series [2] (setting [3]); 31% in series [2] (po, 75 mg, Tablet (75 mg)).
